The subject of series [1] is Male Sprague-Dawley rats. Description: Example 1: body weight gain and nitrogen retention in dexamethasone-infused rats, 8-day subcutaneous mini-pump infusion. The conditions noted are these: 8 days. The format is in vivo, rat. How it is done: On day zero the rats were anaesthetized intraperitoneally with 0.4 ml per 100 g body weight of a mixture of Rompun (20 mg.ml^-1), Ketalar (50 mg.ml^-1) and Saline (0.9%) in 1:2:3 volume proportions. The hair on the back of the rats was shaved off and the exposed skin carefully washed with 0.05% chlorhexidine (Pharmacia, Stockholm, Sweden) and 0.4 % jodopax (Molnlycke, Goteborg, Sweden), both being diluted in 70% alcohol. Two mutually parallel incisions, each of 15 mm in length, were then made along the dorsal midline. The incisions penetrated the epidermis, dermis and subcutaneous muscle but left the deep fascia intact. Two subcutaneous pockets were made on both sides of the incisions by separating the subcutaneous muscle from the deep fascia. One (Exp. I) or two (Exp. 2) mini-pumps were implanted in each pocket. The wounds were closed with sutures 4-0 (Johnson & Johnson). Osmotic mini-pumps (Alzet 2001, Alza Corporation, Palo Alto, USA) releasing 1 μl.h^-1 for 8 days were used for continuous delivery of hormones and Dex to the animals. The pumps were filled to a volume of 0.22 ml with solutions of rhGH (14.4 mg.ml^-1, Genotropin®, Pharmacia), […] (20 mg.ml^-1, Igef®, Pharmacia, Kabi Peptide Hormones, Stockholm, Sweden), insulin (1.57 mg/ml, Actrapid®, Novo, Copenhagen, Denmark), Dex (1.04 mg.ml^-1, Decadron, Merck Sharp & Dohme International, […], USA) or Saline (0.9%). Two (Example 1) or four (Example 2) pumps combined as described above were implanted in each rat. Implantation of the pumps was performed under strictly aseptic conditions. Total feed intake was registered throughout the full 8 day experimental period. Urine and faeces were collected daily, pooled and kept at -20° C. until analysed. Excreta was collected by housing the animals in individual metabolism cages that were specially designed for the separation of urine and faeces. In order to inhibit urease-activity in the urine, 1 ml of 5% sulphuric acid was pipetted every morning in the collection vessels. The 24 hour collections of urine were pooled individually for each treatment period and immediately frozen after the collection. Similarly, the samples of faeces were also pooled individually for each treatment period and kept frozen (-20° C.) until analysis. Urea in serum was determined spectrophotometrically by using the Urea UV Uni-Kit I (Roche) with an autoanalyzer (Cobas Mira, Roche Co, Basel, Switzerland). Urea values were expressed in mmol/l. The total nitrogen content in urine was determined with the aid of the Antek Pyro-Chemiluminiscence Nitrogen System. The apparatus used comprised the […] nitrogen analyser with Liquid Auto Sampler 736-2 and a pyrolysis tube with a ceramic […] Instruments Inc., Houston, Tex., U.S.A.). The frozen urinary samples were thawed and diluted 1:100 with 0.1 M HCl and then analysed. The urinary nitrogen values were then calculated as mg nitrogen excreted. Total nitrogen in faeces was determined by an established Kjeldahl method (Kjeltec System, Tecator AB, Halsingborg, Sweden). The frozen faecal samples were thawed and dried in an oven at 60° C. overnight. The weight of the dried sample was noted and the sample then ground. 0.20 g of the milled faecal sample was mixed in a Kjeldahl digestion tube with 10.0 ml of concentrated sulphuric acid. 2.0 ml of a 30% solution of H202 (30% Perhydrol, Merck, Darmstadt, Germany) was added and mixed carefully. One catalyst tablet (Kjeltabs CA, Thompson & Capper, Runcom, Cheshire, UK) was added to each sample. The mixture was digested at […] for at least one hour or until complete bleaching of the sample was achieved. […] The faecal nitrogen values were calculated as mg nitrogen excreted. Data were subjected to a one-way analysis of variance in which the effect of treatment was considered the prime source of variation. Calculations were executed by the GLM procedure of the SAS program (SAS 1985). […]

Series [2] has as its system Male Sprague-Dawley rats. In words: Example 2: feed intake, nitrogen digestibility and nitrogen retention in dexamethasone-infused rats, 8-day mini-pump infusion of peptide combinations. Type of series: in vivo, rat. The conditions noted are these: 8 days; for relative nitrogen retention (retained N/digested N×100): Dex 26 μg/day with saline or with insulin 39, rhGH 360, rhIGF-I 500 μg/day, mean, pooled SE, saline alone 38.7%; for nitrogen retention, effect compared with Dex without peptide: Dex 26 μg/day plus peptide. How it is done:
On day zero the rats were anaesthetized intraperitoneally with 0.4 ml per 100 g body weight of a mixture of Rompun (20 mg.ml^-1), Ketalar (50 mg.ml^-1) and Saline (0.9%) in 1:2:3 volume proportions. The hair on the back of the rats was shaved off and the exposed skin carefully washed with 0.05% chlorhexidine (Pharmacia, Stockholm, Sweden) and 0.4 % jodopax (Molnlycke, Goteborg, Sweden), both being diluted in 70% alcohol.
Two mutually parallel incisions, each of 15 mm in length, were then made along the dorsal midline. The incisions penetrated the epidermis, dermis and subcutaneous muscle but left the deep fascia intact. Two subcutaneous pockets were made on both sides of the incisions by separating the subcutaneous muscle from the deep fascia. One (Exp. I) or two (Exp. 2) mini-pumps were implanted in each pocket. The wounds were closed with sutures 4-0 (Johnson & Johnson).
Osmotic mini-pumps (Alzet 2001, Alza Corporation, Palo Alto, USA) releasing 1 μl.h^-1 for 8 days were used for continuous delivery of hormones and Dex to the animals. The pumps were filled to a volume of 0.22 ml with solutions of rhGH (14.4 mg.ml^-1, Genotropin®, Pharmacia), rhlGF-I (20 mg.ml^-1, Igef®, Pharmacia, Kabi Peptide Hormones, Stockholm, Sweden), insulin (1.57 mg/ml, Actrapid®, Novo, Copenhagen, Denmark), Dex (1.04 mg.ml^-1, Decadron, Merck Sharp & Dohme International, Rathway, USA) or Saline (0.9%). Two (Example 1) or four (Example 2) pumps combined as described above were implanted in each rat. Implantation of the pumps was performed under strictly aseptic conditions.
Total feed intake was registered throughout the full 8 day experimental period. Urine and faeces were collected daily, pooled and kept at -20° C. until analysed. Excreta was collected by housing the animals in individual metabolism cages that were specially designed for the separation of urine and faeces. In order to inhibit urease-activity in the urine, 1 ml of 5% sulphuric acid was pipetted every morning in the collection vessels. The 24 hour collections of urine were pooled individually for each treatment period and immediately frozen after the collection. Similarly, the samples of faeces were also pooled individually for each treatment period and kept frozen (-20° C.) until analysis.
Urea in serum was determined spectrophotometrically by using the Urea UV Uni-Kit I (Roche) with an autoanalyzer (Cobas Mira, Roche Co, Basel, Switzerland). Urea values were expressed in mmol/l. The total nitrogen content in urine was determined with the aid of the Antek Pyro-Chemiluminiscence Nitrogen System. The apparatus used comprised the Antek 7000N nitrogen analyser with Liquid Auto Sampler 736-2 and a pyrolysis tube with a ceramic liner (Antek Instruments Inc., Houston, Tex., U.S.A.). The frozen urinary samples were thawed and diluted 1:100 with 0.1 M HCl and then analysed. The urinary nitrogen values were then calculated as mg nitrogen excreted.
Total nitrogen in faeces was determined by an established Kjeldahl method (Kjeltec System, Tecator AB, Halsingborg, Sweden). The frozen faecal samples were thawed and dried in an oven at 60° C. overnight. The weight of the dried sample was noted and the sample then ground. 0.20 g of the milled faecal sample was mixed in a Kjeldahl digestion tube with 10.0 ml of concentrated sulphuric acid. 2.0 ml of a 30% solution of H202 (30% Perhydrol, Merck, Darmstadt, Germany) was added and mixed carefully. One catalyst tablet (Kjeltabs CA, Thompson & Capper, Runcom, Cheshire, UK) was added to each sample. The mixture was digested at […] for at least one hour or until complete bleaching of the sample was achieved. The nitrogen content of this solution was determined after alkalinization by steam distillation of the ammonia and automated titration of the distillate. The faecal nitrogen values were calculated as mg nitrogen excreted.
Data were subjected to a one-way analysis of variance in which the effect of treatment was considered the prime source of variation.

Setting [3] is: Dex 26, 13 or 6.5 μg/day (every Dex dose), rhGH 360 μg/day or rhIGF-I 500 μg/day s.c. mini-pump, compared with saline.

“Also recorded” adds a separate entry of the source.

In the case of `C[C@@H]1C[C@H]2[C@@H]3CCC4=CC(=O)C=C[C@]4(C)[C@@]3(F)[C@@H](O)C[C@]2(C)[C@@]1(O)C(=O)CO` [Dex, dexamethasone, reference compound], the “body weight gain, effect of Dex dose” value with Male Sprague-Dawley rats [1] (Dex 6.5, 13, 26 μg/day) is on record as “general decrease with increased Dex dose”. In the series on Male Sprague-Dawley rats [2], the “relative nitrogen retention (retained N/digested N×100)” value (“relative nitrogen retention” for short) came out at 7.2%. Also, the “reduction of feed intake” value in the series with Male Sprague-Dawley rats [2] (Dex 26 μg/day) was “approximately 20%”.
In the case of insulin, in the series on Male Sprague-Dawley rats [2], the “nitrogen retention, effect compared with Dex without peptide” value is “without effect” and the “relative nitrogen retention” value is 11.9%.
Regarding recombinant human growth hormone [rhGH], the body weight gain entry is listed as “opposite effect” with Male Sprague-Dawley rats [1] (setting [3]); “opposite effect (p<0.05)” in the series on Male Sprague-Dawley rats [1] (Dex 26, 13 or 6.5 μg/day (every Dex dose), rhGH 360 μg/day or rhIGF-I 500 μg/day s.c. mini-pump, compared with saline, listed as hGH); “negative values for body weight gain” in the series with Male Sprague-Dawley rats [1] (medium and high Dex infusion dose (13 and 26 μg/day), rhGH 360 μg/day). For the same compound, the “nitrogen retention, effect compared with Dex without peptide” value in the series with Male Sprague-Dawley rats [2] is given as “without effect”. Also, in the series on Male Sprague-Dawley rats [2], the “relative nitrogen retention” value came to 3.8%.
On to “recombinant human insulin-like growth factor I [rhIGF-I]”, for which, in the series with Male Sprague-Dawley rats [1] (setting [3]), the body weight gain entry is given as “significantly (p<0.05) higher weight gain in comparison with saline; also recorded: significantly (p<0.05) increased”. The retention of nitrogen result with Male Sprague-Dawley rats [1] (Dex 26, 13 or 6.5 μg/day, rhIGF-I 500 μg/day, compared with saline and rhGH) is “significantly (p<0.05) higher”. Also, the “relative nitrogen retention” value in the series with Male Sprague-Dawley rats [2] was determined as 23.0%.

Source of the values: patent US5756463A, “Use of insulin and IGF-1” (Pharmacia & Upjohn AB, priority 1994, dated 1998).
